Test results from PubChem BioAssay AID602466 (Sanford-Burnham Center for Chemical Genomics, 2012).
The source made the active and inactive calls. How the calls were made is not given here.

Biological target: Neurotensin receptor type 1 (Homo sapiens) (UniProt P30989)
Experiment: agonism at neurotensin receptor 1, calcium rise – cell-based, fluorescence, calcium flux, single concentration, SAR follow-up (AID 602466)
Conditions: NTR1-expressing cells, at 30 µM (top of the series)

Neurotensin receptor type 1 (Homo sapiens), sequence (P30989 whole entry, looked up): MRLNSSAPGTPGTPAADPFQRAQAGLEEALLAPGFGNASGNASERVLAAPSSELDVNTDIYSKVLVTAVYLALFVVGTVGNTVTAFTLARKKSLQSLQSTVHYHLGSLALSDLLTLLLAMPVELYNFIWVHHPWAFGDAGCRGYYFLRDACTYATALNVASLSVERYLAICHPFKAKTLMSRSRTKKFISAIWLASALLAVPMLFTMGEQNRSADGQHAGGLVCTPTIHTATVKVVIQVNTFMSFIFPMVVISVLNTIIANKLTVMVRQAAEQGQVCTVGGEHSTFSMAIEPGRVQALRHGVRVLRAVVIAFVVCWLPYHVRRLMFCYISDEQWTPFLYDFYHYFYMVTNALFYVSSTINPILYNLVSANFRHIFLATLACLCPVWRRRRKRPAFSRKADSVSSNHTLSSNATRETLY

Structure (SMILES)	activation
COc1cc2c3nnc(-c4ccc(C)cc4)c-3cn(Cc3ccc(F)cc3)c2cc1OC	90.8%
COc1cc2c3nnc(-c4ccc(C)c(C)c4)c-3cn(Cc3ccc(F)cc3)c2cc1OC	38.2% (inactive)
COc1cc2c3nnc(-c4ccc(C)c(C)c4)c-3cn(Cc3ccc(C)cc3)c2cc1OC	131%
COc1cc2nc(C)nc(N3CCN(c4ccccc4OC)CC3)c2cc1OC	17.5% (inactive)
COc1cccc(OC)c1-c1nc(C(=O)N[C@@H](CC(C)C)C(=O)O)cn1-c1ccnc2cc(Cl)ccc12	102%
COc1cc2c3nnc(-c4ccccc4)c-3cn(Cc3ccccc3)c2cc1OC	55%
COc1ccc(-c2nnc3c4cc(OC)c(OC)cc4n(Cc4ccc(C)cc4)cc2-3)cc1	7.03% (inactive)
COc1cc2c3nnc(-c4ccc(F)cc4)c-3cn(Cc3ccccc3)c2cc1OC	110%
COc1cc2c3nnc(-c4ccc(F)cc4)c-3cn(Cc3ccc(C)cc3)c2cc1OC	115%
COc1cc2c3nnc(-c4ccc(F)cc4)c-3cn(Cc3cccc(C)c3)c2cc1OC	191%
COc1cc2c3nnc(-c4ccc(F)cc4)c-3cn(Cc3ccccc3N(C)C)c2cc1OC	37.2% (inactive)
COc1cccc(OC)c1-c1cc(C(=O)N[C@@H](CC(C)C)C(=O)O)nn1-c1ccnc2cc(Cl)ccc12	48.7%
COc1cccc(OC)c1-c1nc(C(=O)N[C@@H](CC(C)C)C(=O)O)cn1-c1cccc2ccccc12	110%
Cc1cccc(C)c1-c1nc(C(=O)N[C@@H](CC(C)C)C(=O)O)cn1-c1ccnc2cc(Cl)ccc12	37.7%
COc1cc2c3nnc(-c4ccc(F)cc4)c-3cn(Cc3ccc(F)cc3)c2cc1OC	95.3%
Cc1ccc(Cn2cc3c(-c4ccc(F)cc4)nnc-3c3cc4c(cc32)OCO4)cc1	13.4% (inactive)
COc1cc2c3nnc(-c4ccc(F)cc4)c-3cn(Cc3ccc(Cl)cc3)c2cc1OC	67.8%
COc1cc2c3nnc(-c4ccc(C)cc4)c-3cn(Cc3ccc(C)cc3)c2cc1OC	132%
COc1cc2nc(-c3ccccc3)nc(N3CCN(c4ccccc4OC)CC3)c2cc1OC	60.6%

Other lines, results leading:

activation	Structure (SMILES)
2.56% (inactive)	COc1cc2c3nnc(-c4ccc(F)cc4)c-3cn(Cc3ccc(OC(F)(F)F)cc3)c2cc1OC
10.2% (inactive)	COc1ccc2c(c1)c1nnc(-c3ccc(F)cc3)c-1cn2Cc1ccccc1
99.2%	COc1cc2c3nnc(-c4ccc(Cl)cc4)c-3cn(Cc3ccccc3)c2cc1OC
9.85% (inactive)	COc1cc2nc(C3CCC3)nc(N3CCN(c4ccccc4C)CC3)c2cc1OC
39.5% (inactive)	COc1ccc2c(c1)c1nnc(-c3ccc(F)cc3)c-1cn2Cc1ccc(F)cc1
56.6%	COc1ccc(Cn2cc3c(-c4ccc(F)cc4)nnc-3c3cc(OC)c(OC)cc32)cc1
11.9%	COc1ccccc1-c1cc(C(=O)N[C@@H](CC(C)C)C(=O)O)nn1-c1ccnc2cc(Cl)ccc12
35.9% (inactive)	COc1ccc(-c2nc(C(=O)N[C@@H](CC(C)C)C(=O)O)cn2-c2ccnc3cc(Cl)ccc23)c(OC)c1
187%	COc1cc2c3nnc(-c4ccc(Cl)cc4)c-3cn(Cc3ccc(F)cc3)c2cc1OC
9.46% (inactive)	Cc1ccc(Cn2cc3c(-c4ccc(F)cc4)nnc-3c3ccccc32)cc1
12.4% (inactive)	COc1cccc(OC)c1-c1nc(C(=O)NC2(C(=O)O)C3CC4CC(C3)CC2C4)cn1-c1ccnc2cc(Cl)ccc12 (stereo not given)
